# Data reported in ChEMBL document CHEMBL5233250, “Factor XIIIa inhibitors as potential novel drugs for venous thromboembolism” (Eur J Med Chem, 2020).
# Numbered stars: 1 amine (or outer) side, 2 acyl side, 3 side chain; on linkers, the order of the positions; unused ones are H or OH. Square brackets hold non-standard residues; d marks the D form. Peptide text beside a SMILES is read from it. * marks the point of attachment. ξ: configuration not given here. X2 = COC(=O)/C=C/CC[C@H](N[*:1])C(=O)[*:2]; Ile(3ξ) = CCC(C)[C@H](N)C(=O)O; X4 = CCOC(=O)c1nc(C(=O)*)cs1; X3 = O=C(c1nc2ccccc2[nH]1)*; Nle = CCCC[C@H](N)C(=O)O; X1 = Cc1nc(C(=O)*)cs1
# Columns and labels:
# [1] = target: T1, Coagulation factor XIII A chain (Homo sapiens) (UniProt P00488); experiment: Binding affinity to human plasma coagulation factor XIIIa assessed as rate constant in presence of GSH by DTNB based UV-fluorescence assay; type: cell-free
# T1 sequence (whole entry): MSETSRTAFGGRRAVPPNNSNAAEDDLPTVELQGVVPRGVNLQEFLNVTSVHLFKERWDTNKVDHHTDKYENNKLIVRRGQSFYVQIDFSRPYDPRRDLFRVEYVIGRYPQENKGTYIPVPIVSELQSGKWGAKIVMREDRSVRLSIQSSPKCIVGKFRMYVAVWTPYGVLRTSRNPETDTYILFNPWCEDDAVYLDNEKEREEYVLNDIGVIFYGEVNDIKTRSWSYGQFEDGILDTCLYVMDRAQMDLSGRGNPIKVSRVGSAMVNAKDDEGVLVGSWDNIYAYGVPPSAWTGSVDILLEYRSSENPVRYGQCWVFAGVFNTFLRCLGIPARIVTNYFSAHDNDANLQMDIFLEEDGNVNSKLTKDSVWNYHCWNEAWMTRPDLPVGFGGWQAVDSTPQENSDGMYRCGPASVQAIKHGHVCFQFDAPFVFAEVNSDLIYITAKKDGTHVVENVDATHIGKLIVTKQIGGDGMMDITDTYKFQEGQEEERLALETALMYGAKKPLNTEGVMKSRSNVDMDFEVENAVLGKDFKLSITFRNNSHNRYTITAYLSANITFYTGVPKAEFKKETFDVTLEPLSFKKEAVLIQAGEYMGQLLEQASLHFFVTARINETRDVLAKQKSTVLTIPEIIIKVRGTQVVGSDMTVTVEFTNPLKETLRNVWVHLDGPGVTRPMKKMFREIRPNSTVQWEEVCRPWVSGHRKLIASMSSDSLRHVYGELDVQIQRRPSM
# [2] = Ratio of rate constant for human plasma coagulation factor XIIIa to rate constant for Glutathione (unknown origin)
# [3] = target: T2, Coagulation factor XIII A chain (Homo sapiens, UniProt P00488); experiment: Inhibition of human coagulation factor XIIIa assessed as inhibition of factor 13a mediated crosslinking of fibronectin-collagen incubated for 2 hrs by SDS-PAGE analysis
# T2 sequence (P00488 whole entry): T1 sequence (whole entry)
# [4] = target: T2, Coagulation factor XIII A chain; experiment: Inhibition of human plasma coagulation factor XIIIa by fluorescence spectrophotometeric assay; type: cell-free
# Canis familiaris [5] = experiment: Antithrombotic activity in Mongrel dog model of electrically-induced coronary artery thrombosis assessed as re-occlusion rate at 0.1 mg/kg,iv pre-administered for 15 mins followed by electric impulse stimulation and t-PA and measured after 90 mins; type: functional, Canis lupus familiaris; conditions: time 105 min, 1.75 h
# Canis familiaris [6] = experiment: Antithrombotic activity in Mongrel dog model of electrically-induced coronary artery thrombosis assessed as time to reperfusion at 0.1 mg/kg,iv pre-administered for 15 mins followed by electric impulse stimulation and t-PA and measured after 90 mins; type: functional, Canis lupus familiaris; conditions: time 105 min, 1.75 h
# Canis familiaris [7] = experiment: Antithrombotic activity in Mongrel dog model of electrically-induced coronary artery thrombosis assessed as reduction in residual thrombus mass at 0.1 mg/kg,iv pre-administered for 15 mins followed by electric impulse stimulation and t-PA and measured after 90 mins; type: functional, Canis lupus familiaris; conditions: time 105 min, 1.75 h
# Canis familiaris [8] = experiment: Antithrombotic activity in Mongrel dog model of electrically-induced coronary artery thrombosis assessed as time to occlusion at 0.1 mg/kg,iv pre-administered for 15 mins followed by electric impulse stimulation and t-PA and measured after 90 mins; type: functional, Canis lupus familiaris; conditions: time 105 min, 1.75 h
# [9] = target: T2, Coagulation factor XIII A chain; experiment: Inhibition of human coagulation factor XIIIa
# [10] = target: T1, Coagulation factor XIII A chain (Homo sapiens); experiment: Inhibition of human coagulation factor XIIIa assessed as maximal efficacy upto 20 nM
# [11] = target: T3, Coagulation factor XIII A chain (Bos taurus) (UniProt P12260); experiment: Inhibition of bovine plasma coagulation factor XIIIa assessed as threshold concentration by measuring insoluble fibrin per total fibrin incubated for 30 mins in presence of bovine fibrin by biuret method; type: cell-free
# T3 sequence (whole entry): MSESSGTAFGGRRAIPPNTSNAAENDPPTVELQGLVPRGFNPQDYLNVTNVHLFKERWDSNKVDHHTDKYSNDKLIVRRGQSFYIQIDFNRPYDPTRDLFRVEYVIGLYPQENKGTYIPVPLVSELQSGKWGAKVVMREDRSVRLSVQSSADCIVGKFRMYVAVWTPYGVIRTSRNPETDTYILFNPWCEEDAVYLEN
# [12] = Inhibition of transglutaminase in guinea pig liver assessed as inhibition constant using Z-Gln-Gly as substrate by Michaelis-Menten analysis; type: tissue-based, Cavia porcellus
# [13] = Plasma concentration in New Zealand White rabbit at iv dosed upto 8 hrs by HPLC method; type: ADME, organism-based, Oryctolagus cuniculus
# [14] = Total clearance in New Zealand White rabbit at iv dosed upto 8 hrs by HPLC method; type: ADME, organism-based, Oryctolagus cuniculus; conditions: in vivo
# [15] = Half life in New Zealand White rabbit at iv dosed upto 8 hrs by HPLC method; type: ADME, organism-based, Oryctolagus cuniculus; conditions: in vivo
# [16] = target: T4, Protein-glutamine gamma-glutamyltransferase (Homo sapiens, UniProt P21980); experiment: Inhibition of tissue transglutaminase (unknown origin); type: tissue-based
# T4 sequence (P21980 whole entry): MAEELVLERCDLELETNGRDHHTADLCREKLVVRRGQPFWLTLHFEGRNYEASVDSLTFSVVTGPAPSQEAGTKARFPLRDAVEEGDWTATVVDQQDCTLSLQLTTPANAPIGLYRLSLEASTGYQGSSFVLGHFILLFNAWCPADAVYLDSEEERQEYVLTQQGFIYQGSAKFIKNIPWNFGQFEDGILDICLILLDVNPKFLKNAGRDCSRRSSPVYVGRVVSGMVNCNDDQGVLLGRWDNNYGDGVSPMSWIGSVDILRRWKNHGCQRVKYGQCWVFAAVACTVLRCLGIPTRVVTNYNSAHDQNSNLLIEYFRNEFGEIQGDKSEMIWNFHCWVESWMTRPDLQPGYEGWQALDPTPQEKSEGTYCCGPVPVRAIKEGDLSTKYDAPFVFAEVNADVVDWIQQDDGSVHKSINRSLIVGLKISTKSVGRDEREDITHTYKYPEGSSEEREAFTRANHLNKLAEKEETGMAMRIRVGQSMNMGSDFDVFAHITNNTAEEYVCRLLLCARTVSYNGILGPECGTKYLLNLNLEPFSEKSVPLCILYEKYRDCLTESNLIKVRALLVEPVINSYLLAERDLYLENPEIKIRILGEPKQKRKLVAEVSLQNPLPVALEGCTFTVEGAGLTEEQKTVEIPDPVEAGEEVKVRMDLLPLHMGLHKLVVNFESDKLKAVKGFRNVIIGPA
# [17] = target: T2, Coagulation factor XIII A chain; experiment: Inhibition of human recombinant coagulation factor XIIIa
# [18] = Selectivity index, ratio of IC50 for inhibition of human coagulation factor XIIIa to IC50 for inhibition of papain (unknown origin)
# [19] = target: T1, Coagulation factor XIII A chain (Homo sapiens); experiment: Inhibition of human coagulation factor XIIIa assessed as maximal inhibition of factor 13a mediated fibrin polymerization at 5 to 500 uM incubated for 24 hrs by SDS-PAGE analysis; conditions: dose 5-500 µM
# Homo sapiens [20] = species: Homo sapiens; experiment: Selectivity index, ratio of IC50 for inhibition of human coagulation factor XIIIa to IC50 for inhibition of human alpha-thrombin
# Homo sapiens [21] = species: Homo sapiens; experiment: Selectivity index, ratio of IC50 for inhibition of human coagulation factor XIIIa to IC50 for inhibition of human Factor Xa
# [22] = target: T1, Coagulation factor XIII A chain (Homo sapiens); experiment: Inhibition of human coagulation factor XIIIa assessed as enzyme residual activity at 100 uM in presence of polybrene by Spectrofluorometric assay
# [23] = target: T2, Coagulation factor XIII A chain; experiment: Inhibition of human plasma coagulation factor XIIIa; type: cell-free
compound,measurement,setting,value
NC(=O)CI,K,[1],0.8 10^4/M/s
same,Ratio,[2],5 10^3No_unit
NCCCNCCCCNCCCN [SPERMINE],IC50,[3],100000 nM
O=C(O)CCCCCc1cc1=O,IC50,[4],1900 nM
CC(=O)CSc1n(C)cc[n+]1C,K,[1],0.35 10^4/M/s
same,Ratio,[2],1.9 10^6No_unit
CC(=O)CSc1n[n+]2c(C)csc2s1,Activity,Canis familiaris [5],75%
same,Time,Canis familiaris [6],16.4 min
same,Activity,Canis familiaris [7],1.7 mg
same,Time,Canis familiaris [8],44.4 min
CC(=O)NCCc1ccc(O)cc1,IC50,[9],200 nM
O=C1C(OS(=O)(=O)O)=C(c2ccc(OS(=O)(=O)O)c(OCCCOc3cc(OS(=O)(=O)O)cc4oc(-c5ccc(OS(=O)(=O)O)c(OS(=O)(=O)O)c5)c(OS(=O)(=O)O)c(=O)c34)c2)OC2C=C(OS(=O)(=O)O)C=C(OCCCOc3cc(OS(=O)(=O)O)cc4oc(-c5ccc(OS(=O)(=O)O)c(OS(=O)(=O)O)c5)c(OS(=O)(=O)O)c(=O)c34)C12 (stereo not drawn),Efficacy,[10],93%
same,IC50,[9],118000 nM
Cc1ccc(S(=O)(=O)NCCCCNC(=O)CCl)cc1,Activity,[11],15 µg/mL
O=C(O)CCCCCCCCCCc1cc1=O,IC50,[4],310 nM
NCCCCCNC(=S)Nc1ccccc1,Ki,[12],49000 nM
Cc1c(C)[n+](C)c(SCC(=O)CSc2nnnn2C)n1C,K,[1],4.9 10^4/M/s
same,Ratio,[2],4.1 10^6No_unit
Cc1ccc(S(=O)(=O)NCCCCCCCCCCC(=O)CCl)cc1,Activity,[11],50 µg/mL
O=[N+]([O-])c1ccccc1S(=O)(=O)NCCCCCCNc1nsc2nccn12,concentration at 8 h,[13],80 µM
same,clearance,[14],> 63.3 mL/min/kg
same,half-life,[15],7.8 min
CC(=O)CSc1n(C)c(C)c(C)[n+]1C,K,[1],6.3 10^4/M/s
same,Ratio,[2],3.9 10^4No_unit
O=C(CCCCCCCc1cc1=O)NCCc1ccccc1,IC50,[4],26 nM
Cc1ccc(C(=O)NCCCCCC(=O)CCl)cc1,Activity,[11],0.8 µg/mL
C[C@@H]1CCC/C=C\C(=O)Cc2cc(O)cc(O)c2C(=O)O1,IC50,[16],3100 nM
CCOC(=O)c1nc(C(=O)N[C@@H](CC/C=C/C(=O)OC)C(=O)N[C@@H](CC(C)C)C(=O)N[C@H](C(=O)N[C@@H](CC(C)C)C(=O)N2CCC[C@H]2C(=O)N[C@@H](Cc2c[nH]c3ccccc23)C(=O)N2CCC[C@H]2C(N)=O)C(C)CC)cs1 (stereo partly drawn) (X4-[X2]L[Ile(3ξ)]LPWP-NH2),IC50,[17],29 nM
NCCCCNCCCN [SPERMIDINE],IC50,[3],100000 nM
CCC(C)[C@H](NC(=O)[C@H](CC(C)C)NC(=O)[C@H](CC/C=C/C(=O)OC)NC(=O)c1nc2ccccc2[nH]1)C(=O)N[C@@H](CC(C)C)C(=O)N1CCC[C@H]1C(=O)N[C@@H](Cc1c[nH]c2ccccc12)C(=O)N1CCC[C@H]1C(N)=O (stereo partly drawn) (X3-[X2]L[Ile(3ξ)]LPWP-NH2),IC50,[17],102 nM
CCCC[C@H](NC(=O)[C@H](CC/C=C/C(=O)OC)NC(=O)c1csc(C)n1)C(=O)N[C@H](C(=O)N[C@@H](CC(C)C)C(=O)N1CCC[C@H]1C(=O)N[C@@H](Cc1c[nH]c2ccccc12)C(N)=O)C(C)CC (stereo partly drawn) (X1-[X2][Nle][Ile(3ξ)]LPW-NH2),IC50,[17],139 nM
O=c1c(OS(=O)(=O)O)c(-c2ccc(OS(=O)(=O)O)c(OS(=O)(=O)O)c2)oc2cc(OS(=O)(=O)O)cc(OCCOc3cc(-c4oc5cc(OS(=O)(=O)O)cc(OCCOc6cc(OS(=O)(=O)O)cc7oc(-c8ccc(OS(=O)(=O)O)c(OS(=O)(=O)O)c8)c(OS(=O)(=O)O)c(=O)c67)c5c(=O)c4OS(=O)(=O)O)ccc3OS(=O)(=O)O)c12,Ratio IC50,[18],27
same,Efficacy,[19],100%
same,Ratio IC50,Homo sapiens [20],26
same,Efficacy,[10],98%
same,Ratio IC50,Homo sapiens [21],9
same,Activity,[22],85%
Cc1ccc(S(=O)(=O)N(C)CCCCCC(=O)CCl)cc1,Activity,[11],0.1 µg/mL
Cc1ccc(S(=O)(=O)NCCCCOC(=O)CCl)cc1,Activity,[11],40 µg/mL
O=C(O)CCCCCCCc1cc1=O,IC50,[4],610 nM
O=C(CCl)CCCCCNS(=O)(=O)c1ccc(Cl)cc1,Activity,[11],0.2 µg/mL
Cc1ccc(S(=O)(=O)NCCCCCC(=O)CCl)cc1,Activity,[11],0.05 µg/mL
CC(=O)CSc1n(C)c(-c2ccccc2)c(-c2ccccc2)[n+]1C,IC50,[23],350 nM
